Bridge positions count the residues as written; N and C are the ends. Square brackets hold non-standard residues; d marks the D form. Peptide text beside a SMILES is read from it. * marks the point of attachment. hPhe(3-Cl-4-CF3) = N[C@@H](CCc1ccc(C(F)(F)F)c(Cl)c1)C(=O)O; hPhe(3-F,4-CF3) = N[C@@H](CCc1ccc(C(F)(F)F)c(F)c1)C(=O)O; NMePhe(4-CF3) = CN[C@@H](Cc1ccc(C(F)(F)F)cc1)C(=O)O; 3Oxa8azabicyclo(3.2.1)octane = C1CC2COCC1N2*; NMePhe(4-Me) = CN[C@@H](Cc1ccc(C)cc1)C(=O)O; NMeAla(cPent) = CN[C@@H](CC1CCCC1)C(=O)O; NMeGly(cPent) = CN[C@H](C(=O)O)C1CCCC1; Gly(cPent) = N[C@H](C(=O)O)C1CCCC1; NMeCha = CN[C@@H](CC1CCCCC1)C(=O)O; NMehLeu = CN[C@@H](CCC(C)C)C(=O)O; NEtLeu = CCN[C@@H](CC(C)C)C(=O)O; NMeI = CC[C@H](C)[C@H](NC)C(=O)O; Piperidide(4-Me) = CC1CCN(*)CC1; NMeD = CN[C@@H](CC(=O)O)C(=O)O; NMeL = CN[C@@H](CC(C)C)C(=O)O; NMeV = CN[C@H](C(=O)O)C(C)C; d(β3hA) = C[C@@H](N)CC(=O)O; Azetidin(1-yl) = C1CN(*)C1; NMeS = CN[C@@H](CO)C(=O)O; Morpholide = C1CN(*)CCO1; NMeA = CN[C@@H](C)C(=O)O; Pyrrolidide = C1CCN(*)C1; Ac5c = NC1(C(=O)O)CCCC1; Aze = O=C(O)[C@@H]1CCN1; NEtG = CCNCC(=O)O; Sar = CNCC(=O)O; Propyl = CCC*
molecular target: protein-protein interaction between Kras and SOS1 (biotin-tagged human Kras loaded with GDP, His-tagged human SOS1) (Homo sapiens (Human), UniProt P01116, G12D); assay: Protein-protein interaction inhibition between Kras and SOS1 (KrasG12D-SOS PPI) using AlphaScreen; assay type: biochemical; conditions: AlphaScreen; biotin-tagged human Kras loaded with GDP, His-tagged human SOS1; read-out: KRAS G12D-SOS PPI IC50;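 also: kras produced in E. coli, Ni-coupled donor beads and streptavidin acceptor beads, excitation 680 nm with emission detected at 520–620 nm via singlet oxygen transfer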

Compound | IC50
CC[C@H](C)[C@@H]1NC(=O)[C@H](CC(C)C)N(C)C(=O)C[C@@H](C(=O)N2CCOCC2)N(C)C(=O)[C@H](C2CCCC2)N(C)C(=O)C2(CCCC2)NC(=O)[C@@H]2CCCN2C(=O)[C@H](CCc2ccc(C(F)(F)F)c(Cl)c2)NC(=O)CN(C)C(=O)[C@H](CC2CCCCC2)N(C)C(=O)[C@@H]2CCN2C(=O)[C@H](C)NC1=O [Compound 1137] ([NMeL]IA[Aze][NMeCha][Sar][hPhe(3-Cl-4-CF3)]P[Ac5c][NMeGly(cPent)][NMeD]-Morpholide; lactam N-11) | 4.6 nM
CC[C@H](C)[C@@H]1NC(=O)[C@H](CC(C)C)N(CC)C(=O)C[C@@H](C(=O)N2CCOCC2)N(C)C(=O)[C@H](C2CCCC2)N(C)C(=O)C2(CCCC2)NC(=O)[C@@H]2CCCN2C(=O)[C@H](CCc2ccc(C(F)(F)F)c(Cl)c2)NC(=O)CN(C)C(=O)[C@H](C2CCCC2)N(C)C(=O)[C@@H]2CCN2C(=O)[C@H](C)NC1=O [Compound 1140] ([NEtLeu]IA[Aze][NMeGly(cPent)][Sar][hPhe(3-Cl-4-CF3)]P[Ac5c][NMeGly(cPent)][NMeD]-Morpholide; lactam N-11) | 2 nM
CC[C@H](C)[C@@H]1NC(=O)[C@H](CC(C)C)N(C)C(=O)C[C@@H](C(=O)N2CCOCC2)N(C)C(=O)[C@H](C2CCCC2)N(C)C(=O)C2(CCCC2)NC(=O)[C@@H]2CCCN2C(=O)[C@H](CCc2ccc(C(F)(F)F)c(Cl)c2)NC(=O)CN(CC)C(=O)[C@H](C2CCCC2)N(C)C(=O)[C@@H]2CCN2C(=O)[C@H](C)N(C)C1=O [Compound 1142] ([NMeL]I[NMeA][Aze][NMeGly(cPent)][NEtG][hPhe(3-Cl-4-CF3)]P[Ac5c][NMeGly(cPent)][NMeD]-Morpholide; lactam N-11) | 6.5 nM
CC[C@H](C)[C@@H]1NC(=O)[C@H](CC2CCCC2)N(C)C(=O)C[C@@H](C(=O)N2CCOCC2)N(C)C(=O)[C@H](C2CCCC2)N(C)C(=O)C2(CCCC2)NC(=O)[C@@H]2CCCN2C(=O)[C@H](CCc2ccc(C(F)(F)F)c(Cl)c2)NC(=O)CN(C)C(=O)[C@H](C2CCCC2)N(C)C(=O)[C@@H]2CCN2C(=O)[C@H](C)NC1=O [Compound 1145] ([NMeAla(cPent)]IA[Aze][NMeGly(cPent)][Sar][hPhe(3-Cl-4-CF3)]P[Ac5c][NMeGly(cPent)][NMeD]-Morpholide; lactam N-11) | 1.1 nM
CC[C@H](C)[C@@H]1NC(=O)[C@H](CC(C)C)N(CC)C(=O)C[C@@H](C(=O)N2CCCC2)N(C)C(=O)[C@H]([C@@H](C)CC)N(C)C(=O)C2(CCCC2)NC(=O)[C@@H]2CCCN2C(=O)[C@H](CCc2ccc(C(F)(F)F)c(Cl)c2)NC(=O)CN(C)C(=O)[C@H](Cc2ccc(C(F)(F)F)cc2)N(C)C(=O)[C@@H]2CCN2C(=O)[C@H](C)NC1=O [Compound 1146] ([NEtLeu]IA[Aze][NMePhe(4-CF3)][Sar][hPhe(3-Cl-4-CF3)]P[Ac5c][NMeI][NMeD]-Pyrrolidide; lactam N-11) | 1.9 nM
CCCOC[C@H]1C(=O)N(C)CC(=O)N[C@@H](CCc2ccc(C(F)(F)F)c(Cl)c2)C(=O)N2CCC[C@H]2C(=O)NC2(CCCC2)C(=O)N(C)[C@@H](C2CCCC2)C(=O)N(C)[C@H](C(=O)N2C3CCC2COC3)CC(=O)N(C)[C@@H](CCC(C)C)C(=O)N[C@@H]([C@@H](C)CC)C(=O)N(C)[C@@H](C)C(=O)N2CC[C@H]2C(=O)N1C [Compound 1154] ([NMehLeu]I[NMeA][Aze][NMeS](Propyl)[Sar][hPhe(3-Cl-4-CF3)]P[Ac5c][NMeGly(cPent)][NMeD]-{3Oxa8azabicyclo(3.2.1)octane}; lactam N-11) | 2.4 nM
CC[C@H](C)[C@@H]1NC(=O)[C@H](CC(C)C)N(C)C(=O)C[C@@H](C(=O)N2CCCC2)N(C)C(=O)[C@H]([C@@H](C)CC)N(C)C(=O)C2(CCCC2)NC(=O)[C@@H]2CCCN2C(=O)[C@H](CCc2ccc(C(F)(F)F)c(Cl)c2)NC(=O)CN(CC)C(=O)[C@H](Cc2ccc(C(F)(F)F)cc2)N(C)C(=O)[C@@H]2CCN2C(=O)[C@H](C)N(C)C1=O [Compound 1159] ([NMeL]I[NMeA][Aze][NMePhe(4-CF3)][NEtG][hPhe(3-Cl-4-CF3)]P[Ac5c][NMeI][NMeD]-Pyrrolidide; lactam N-11) | 2.8 nM
CC[C@H](C)[C@@H]1NC(=O)[C@H](CC(C)C)N(C)C(=O)C[C@@H](C(=O)N2CCC(C)CC2)NC(=O)[C@H](C(C)C)N(C)C(=O)C2(CCCC2)NC(=O)[C@@H]2CCCN2C(=O)[C@H](CCc2ccc(C(F)(F)F)c(Cl)c2)NC(=O)CN(C)C(=O)[C@H](CC2CCCCC2)N(C)C(=O)[C@@H]2CCN2C(=O)[C@H](C)N(C)C1=O [Compound 1161] ([NMeL]I[NMeA][Aze][NMeCha][Sar][hPhe(3-Cl-4-CF3)]P[Ac5c][NMeV]D-{Piperidide(4-Me)}; lactam N-11) | 60 nM
CC[C@H](C)[C@@H]1NC(=O)[C@H](CC(C)C)N(C)C(=O)C[C@@H](C(=O)N(C)C)N(C)C(=O)[C@H](C2CCCC2)N(C)C(=O)C2(CCCC2)NC(=O)[C@@H]2CCCN2C(=O)[C@H](CCc2ccc(C(F)(F)F)c(F)c2)NC(=O)CN(C)C(=O)[C@H](CC2CCCCC2)N(C)C(=O)[C@@H]2CCN2C(=O)[C@H](C)NC1=O [Compound 1164] ([NMeL]IA[Aze][NMeCha][Sar][hPhe(3-F,4-CF3)]P[Ac5c][NMeGly(cPent)][NMeD]-NMe2; lactam N-11) | 1.4 nM
CCCOC[C@H]1C(=O)N(C)CC(=O)N[C@@H](CCc2ccc(C(F)(F)F)c(Cl)c2)C(=O)N2CCC[C@H]2C(=O)NC2(CCCC2)C(=O)N(C)[C@@H](C2CCCC2)C(=O)N(C)[C@H](C(=O)N2C3CCC2COC3)CC(=O)N(CC)[C@@H](CC(C)C)C(=O)N[C@@H]([C@@H](C)CC)C(=O)N[C@@H](C)C(=O)N2CC[C@H]2C(=O)N1C [Compound 1167] ([NEtLeu]IA[Aze][NMeS](Propyl)[Sar][hPhe(3-Cl-4-CF3)]P[Ac5c][NMeGly(cPent)][NMeD]-{3Oxa8azabicyclo(3.2.1)octane}; lactam N-11) | 8.7 nM
CC[C@H](C)[C@@H]1NC(=O)[C@H](CCC(C)C)N(C)C(=O)C[C@@H](C(=O)N2CCOCC2)N(C)C(=O)[C@H](C2CCCC2)N(C)C(=O)C2(CCCC2)NC(=O)[C@@H]2CCCN2C(=O)[C@H](CCc2ccc(C(F)(F)F)c(Cl)c2)NC(=O)CN(C)C(=O)[C@H](CC2CCCCC2)N(C)C(=O)[C@@H]2CCN2C(=O)[C@H](C)NC1=O [Compound 1171] ([NMehLeu]IA[Aze][NMeCha][Sar][hPhe(3-Cl-4-CF3)]P[Ac5c][NMeGly(cPent)][NMeD]-Morpholide; lactam N-11) | 0.99 nM
CC[C@H](C)[C@@H]1NC(=O)[C@H](CC2CCCC2)N(C)C(=O)C[C@@H](C(=O)N2CCOCC2)N(C)C(=O)[C@H](C2CCCC2)N(C)C(=O)C2(CCCC2)NC(=O)[C@@H]2CCCN2C(=O)[C@H](CCc2ccc(C(F)(F)F)c(Cl)c2)NC(=O)CN(C)C(=O)[C@H](CC2CCCCC2)N(C)C(=O)[C@@H]2CCN2C(=O)[C@H](C)NC1=O [Compound 1176] ([NMeAla(cPent)]IA[Aze][NMeCha][Sar][hPhe(3-Cl-4-CF3)]P[Ac5c][NMeGly(cPent)][NMeD]-Morpholide; lactam N-11) | 0.8 nM
CCCOC[C@H]1C(=O)N(C)CC(=O)N[C@@H](CCc2ccc(C(F)(F)F)c(Cl)c2)C(=O)N2CCC[C@H]2C(=O)NC2(CCCC2)C(=O)N(C)[C@@H](C2CCCC2)C(=O)N(C)[C@H](C(=O)N2C3CCC2COC3)CC(=O)N(CC)[C@@H](CC(C)C)C(=O)N[C@@H]([C@@H](C)CC)C(=O)N(C)[C@@H](C)C(=O)N2CC[C@H]2C(=O)N1C [Compound 1193] ([NEtLeu]I[NMeA][Aze][NMeS](Propyl)[Sar][hPhe(3-Cl-4-CF3)]P[Ac5c][NMeGly(cPent)][NMeD]-{3Oxa8azabicyclo(3.2.1)octane}; lactam N-11) | 2.1 nM
CC[C@H](C)[C@@H]1NC(=O)[C@H](CC(C)C)N(CC)C(=O)C[C@@H](C(=O)N2CCC2)N(C)C(=O)[C@H](C2CCCC2)N(C)C(=O)C2(CCCC2)NC(=O)[C@@H]2CCCN2C(=O)[C@H](CCc2ccc(C(F)(F)F)c(Cl)c2)NC(=O)CN(C)C(=O)[C@H](CC2CCCCC2)N(C)C(=O)[C@@H]2CCN2C(=O)[C@H](C)N(C)C1=O [Compound 1198] ([NEtLeu]I[NMeA][Aze][NMeCha][Sar][hPhe(3-Cl-4-CF3)]P[Ac5c][NMeGly(cPent)][NMeD]-{Azetidin(1-yl)}; lactam N-11) | 1.2 nM
CC[C@H](C)[C@@H]1NC(=O)[C@H](CC(C)C)N(C)C(=O)C[C@@H](C)NC(=O)[C@H](C2CCCC2)NC(=O)C2(CCCC2)NC(=O)[C@@H]2CCCN2C(=O)[C@H](CCc2ccc(C(F)(F)F)c(Cl)c2)NC(=O)CN(C)C(=O)[C@H](Cc2ccc(C)cc2)N(C)C(=O)[C@@H]2CCN2C(=O)[C@H](C)N(C)C1=O [Compound 1213] (cyclo([Ac5c][Gly(cPent)][d(β3hA)][NMeL]I[NMeA][Aze][NMePhe(4-Me)][Sar][hPhe(3-Cl-4-CF3)]P)) | 17 nM
CC[C@H](C)[C@@H]1NC(=O)[C@H](CCC(C)C)N(C)C(=O)C[C@@H](C(=O)N2CCOCC2)N(C)C(=O)[C@H](C2CCCC2)N(C)C(=O)C2(CCCC2)NC(=O)[C@@H]2CCCN2C(=O)[C@H](CCc2ccc(C(F)(F)F)c(Cl)c2)NC(=O)CN(C)C(=O)[C@H](C2CCCC2)N(C)C(=O)[C@@H]2CCN2C(=O)[C@H](C)NC1=O [Compound 1223] ([NMehLeu]IA[Aze][NMeGly(cPent)][Sar][hPhe(3-Cl-4-CF3)]P[Ac5c][NMeGly(cPent)][NMeD]-Morpholide; lactam N-11) | 1.2 nM
CC[C@H](C)[C@@H]1NC(=O)[C@H](CC(C)C)N(CC)C(=O)C[C@@H](C(=O)N2CCOCC2)N(C)C(=O)[C@H]([C@@H](C)CC)N(C)C(=O)C2(CCCC2)NC(=O)[C@@H]2CCCN2C(=O)[C@H](CCc2ccc(C(F)(F)F)c(Cl)c2)NC(=O)CN(C)C(=O)[C@H](Cc2ccc(C(F)(F)F)cc2)N(C)C(=O)[C@@H]2CCN2C(=O)[C@H](C)NC1=O [Compound 1233] ([NEtLeu]IA[Aze][NMePhe(4-CF3)][Sar][hPhe(3-Cl-4-CF3)]P[Ac5c][NMeI][NMeD]-Morpholide; lactam N-11) | 2.5 nM
